Patent US10137138B1, “Sulfonylurea derivatives of oleanolic acid” (KING SAUD UNIVERSITY, priority 2018, dated 2018)

How the values were obtained:
[1] = test system: alloxan-induced diabetic mouse model; assay: Acute evaluation of in vivo oral hypoglycemic activity; settings: diabetic mice, single oral dose 200 μg/kg body weight, mean ± SEM, n=6
Protocol: The sulfonylurea derivatives of oleanolic acid were screened for their oral hypoglycemic activity in vivo using the alloxan-induced diabetic mouse model. In an acute evaluation, the percentage change in blood glucose levels in diabetic mice after oral administration of the test compounds (200 μg/kg body weight) was measured and summarized in Table 1 and FIG. 2.
Briefly, animals were fasted overnight and the fasting blood glucose (BG) (0 hour) levels were calculated. Test and control compounds were administered at a fixed dose of 200 μg/kg body weight orally (homogenized suspension in 0.5% carboxymethyl cellulose (CMC) and permissible amounts of Tween 80). Animals in the vehicle-treated group were given an equal volume of 0.5% CMC and control group animals were untreated. Blood samples were removed from all animals at 2, 4, 6 and 24 hours and the percentage change in BG was calculated. The data were analyzed by one-way ANOVA followed by Dunnett's test. The results were expressed as mean±standard error of mean for each group, n=6 for each group, and p<0.01 or p<0.05 was considered as statistically significant.

[2] = test system: alloxan-induced diabetic mouse model; assay: Sub-acute evaluation of in vivo oral hypoglycemic activity (21 days dosing, 7 days rest); settings: diabetic mice, mean ± SEM, n=6; for % change in BG, 7 days rest period: day 28: 7 days rest after 21 days oral 200 μg/kg body weight; for % change in BG, 7 day / % change in BG, 14 day / % change in BG, 21 day: oral 200 μg/kg body weight daily; for % change in BG, 7 day: day 7; for % change in BG, 14 day: day 14; for % change in BG, 21 day: day 21
Protocol: The sulfonylurea derivative compounds were also screened for their oral hypoglycemic activity after several days of administration using the alloxan-induced diabetic mouse model, and percentage changes in blood glucose levels after oral administration ([…] body weight) were recorded (Table 2).
Briefly, animals were fasted overnight, and the fasting BG (0 day) levels were calculated. Test and control compounds were administered orally for 21 days at a fixed time and a fixed dose of 200 μg/kg body weight (homogenized suspension in 0.5% CMC and permissible amounts of Tween 80). After 21 days, treatment was stopped and animals were rested for a period of 7 days. Animals in the vehicle-treated group were then given an equal amount of 0.5% CMC and those of control group were untreated. Blood samples were removed from all animals throughout the course of the study at 7, 14, 21 and 28 days, and percentage change in BG was calculated. The data were analyzed by one-way ANOVA, followed by Dunnett's test. The results were expressed as mean±standard error of mean for each group, n=6 for each group, and p<0.01 or p<0.05 was considered as statistically significant (Table 2).

## CC1(C)CC[C@]2(C(=O)NCCc3ccc(S(=O)(=O)NC(=O)NC4CCCCC4)cc3)CC[C@]3(C)C(=CC[C@@H]4[C@@]5(C)CCC(=O)C(C)(C)[C@@H]5CC[C@]43C)[C@@H]2C1 [Compound 3a, N1-[p-(4-Oxo-18β-olean-12-ene-28-amido-ethyl)-benzenesulfonyl]-N2-cyclohexyl-urea]
[1]
  % change in BG, 2 h: −72.76 ± 0.78%
  % change in BG, 4 h: −77.76 ± 0.90%
  % change in BG, 6 h: −83.56 ± 0.83%
  % change in BG, 24 h: −74.44 ± 0.74%
[2]
  % change in BG, 7 days rest period: −81.78 ± 0.90%
  % change in BG, 7 day: −76.87 ± 0.89%
  % change in BG, 14 day: −80.09 ± 0.90%
  % change in BG, 21 day: −87.65 ± 0.95%

## CC1CCC(NC(=O)NS(=O)(=O)c2ccc(CCNC(=O)C34CCC(C)(C)CC3C3=CCC5C6(C)CCC(=O)C(C)(C)C6CCC5(C)C3(C)CC4)cc2)CC1 (stereo not drawn) [Compound 3b, N1-[4-(3-Oxo-18β-olean-12-ene-28-amido-ethyl)-benzenesulfonyl]-N2-(4-methylcyclohexyl)-urea]
[1]
  % change in BG, 2 h: −75.56 ± 0.86%
  % change in BG, 4 h: −80.97 ± 0.92%
  % change in BG, 6 h: −88.89 ± 0.98%
  % change in BG, 24 h: −76.76 ± 0.89%
[2]
  % change in BG, 7 days rest period: −82.12 ± 1.17%
  % change in BG, 7 day: −80.80 ± 0.80%
  % change in BG, 14 day: −84.98 ± 1.16%
  % change in BG, 21 day: −88.89 ± 1.12%

## COc1ccc(Cl)cc1C(=O)NCCc1ccc(S(=O)(=O)NC(=O)NC2CCCCC2)cc1 [Glibenclamide, glibenclamide]
[1]
  % change in BG, 2 h: −35.55 ± 1.55%
  % change in BG, 4 h: −26.54 ± 1.32%
  % change in BG, 6 h: −15.58 ± 0.88%
  % change in BG, 24 h: −11.24 ± 0.11%
[2]
  % change in BG, 7 days rest period: −28.48 ± 0.58%
  % change in BG, 7 day: −16.23 ± 0.32%
  % change in BG, 14 day: −22.57 ± 0.54%
  % change in BG, 21 day: −30.87 ± 0.58%

## CC1(C)CC[C@]2(C(=O)O)CC[C@]3(C)C(=CC[C@@H]4[C@@]5(C)CC[C@H](O)C(C)(C)[C@@H]5CC[C@]43C)[C@@H]2C1 [Oleanolic acid, oleanolic acid]
[1]
  % change in BG, 2 h: −40.79 ± 1.20%
  % change in BG, 4 h: −48.66 ± 1.31%
  % change in BG, 6 h: −52.17 ± 1.31%
  % change in BG, 24 h: −51.01 ± 1.11%
[2]
  % change in BG, 7 days rest period: −30.32 ± 0.83%
  % change in BG, 7 day: −10.56 ± 0.80%
  % change in BG, 14 day: −20.35 ± 0.72%
  % change in BG, 21 day: −37.68 ± 0.78%
